Experimental data published in ChEMBL document CHEMBL1130920, “The structure-activity relationships of a series of suicide inhibitors of phospholipase A2” (Bioorg Med Chem Lett, 1998).

test: Compound was tested for the inhibitory activity against cobra venom PLA2 (Naja naja atra) by using the Dole assay

Row | SMILES | Activity (nM min-1 mg-1)
1 | O=S(=O)(c1ccc(O)cc1)C(F)(F)F | 11.9
2 | O=[N+]([O-])c1ccc(O)cc1 | 2.5
3 | CS(=O)(=O)c1ccc(O)cc1 | 11.1
4 | [O-][S+](c1ccc(O)cc1)C(F)(F)F (centres undefined) | 2
